What was measured:
LepRB = LepRB membrane translocation (immunofluorescence) and leptin-binding assay in 293 cells; assay type: cell-based, Human
Experimental: Considering the fact that LepRB is folded in the ER, we investigated whether ER stress blocks leptin receptor translocation to the membrane from the ER and whether this could be a reason for the blockade of leptin signaling. We stimulated the 293 cells with tunicamycin for five hours (3 μg/ml) and analyzed leptin receptor levels in the plasma membrane by immunofluoresence staining. It was observed that LepRB folding is still preserved and its translocation to the membrane is not decreased in ER stress conditions. Next, we performed leptin-binding assays in DMSO and tunicamycin-treated cells to exclude the possibility of a defect in binding of leptin to LepRB.

[1] = test system: hypothalamus of lean mice; assay: Tunicamycin infusion to the third ventricle of lean mice; assay type: in vivo
Description: Having shown that ER stress is increased in the hypothalamus of HFD-fed mice and causes leptin resistance in the cellular systems, we sought to investigate whether leptin action could also be blocked by directly inducing ER stress in brains of lean mice.
Next, we investigated the expression patterns of leptin resistance markers such as neuropeptide Y (NPY) and agouti related peptide (AgRP) in the vehicle- and tunicamycin-infused mice. […] In addition, to exclude the possibility that tunicamycin infusion leads to a decay in mRNA degradation of NPY and AgRP due to a possible toxic effect, we analyzed mRNA levels of IR and insulin receptor substrate 1 (IRS1).
To assess whether increased ER stress and activation of UPR signaling would create leptin resistance and block the leptin-stimulated Stat3 activation in the hypothalamus, leptin (1 mg/kg/day) was intraperitoneally administered 5½ hours after tunicamycin infusion. The experiment was ended by dissection of the hypothalami 30 minutes after leptin administration. […] In contrast, administration of tunicamycin to the third ventricle and creation of ER stress, in complete accordance with our data obtained from 293 cells, blocked activation of Stat3 in the hypothalamus (data not shown).

insulin receptor (IR) = assay: Insulin receptor activation in LepRB-expressing 293 cells after tunicamycin; assay type: cell-based, Human; conditions: tunicamycin 3 μg/ml five hours, insulin 100 nM five minutes
Experimental: To exclude the possibility that LepRB-expressing 293 cells become dysfunctional due to a possible toxicity generated by tunicamycin, we investigated the insulin receptor (IR) activation by stimulating the cells with insulin (100 nM) for five minutes after five-hour tunicamycin (3 μg/ml) treatment.

[2] = test system: LepRB signaling (LepRB, Jak2, Stat3); assay: Tunicamycin dose curve and time course in Ad-LacZ, Ad-XBP1s or Ad-ATF6n infected LepRb-expressing 293 cells; assay type: cell-based, Human
Description: To determine whether exogenous expression of XBP1s and a consequent increase in ER folding capacity would enhance leptin receptor signaling, we generated an XBP1s-encoding adenovirus (Ad-XBP1s) and also a LacZ-expressing adenovirus (Ad-LacZ) as a control. Infection of mouse embryonic fibroblasts (MEFs) with Ad-XBP1s increased the protein level of XBP1s (data not shown). To test whether the expressed XBP1s was functional, we co-infected cells with Ad-XBP1s and a luciferase reporter gene-driven by an ERSE. […] ERDJ4 is a chaperone and involved in folding of ER proteins. […] After showing that Ad-XBP1s is functional and can increase ER folding capacity, we subsequently overexpressed the XBP1s in the LepRb-expressing 293 cells and performed two sets of experiments. In the first, we asked whether XBP1s overexpression could enhance the leptin-stimulated tyrosine phosphorylation of LepRb and increase the ability of the cells withstand to the ER stress-mediated blockade of LepRb activation. For this purpose we stimulated the 293 cells with increasing doses of tunicamycin (0.001, 0.01, 0.05, 0.1 and 1 μg/ml) for 5 hours and analyzed leptin-stimulated LepRb activation. In Ad-LacZ infected cells, LepRb activation was blocked at tunicamycin doses of 0.01 μg/ml and higher (data not shown). […]

[3] = test system: LepRB signaling (LepRB, Jak2, Stat3); assay: Leptin receptor signaling in LepRB-expressing 293 cells under tunicamycin-induced ER stress; assay type: cell-based, Human; conditions: then leptin 100 ng/ml 45 minutes
Description: The leptin receptor belongs to the interleukin 6 (IL-6) receptor family of class I cytokine receptors^30. […] Binding of leptin to LepRb initiates a conformational change that leads to trans-autophosphorylation and activation of LepRb-associated Jak2^31,32 Activated Jak2 then phosphorylates the tyrosine residues within the LepRb/Jak2 complex to mediate downstream signaling. […] To examine whether UPR might alter the leptin signaling, LepRB-expressing 293 cells were first exposed to tunicamycin (3 μg/ml) to activate ER stress for a period of 4 hours and then treated with leptin (100 ng/ml) for 45 minutes. […] Finally, as a downstream element, leptin-stimulated Stat3 activation was analyzed.

[4] = tunicamycin 3 μg/ml (or DMSO) 4 hours

tunicamycin
LepRB translocation to the plasma membrane (LepRB; 293 cells, tunicamycin 3 μg/ml five hours, immunofluorescence): not decreased | leptin binding to LepRB (LepRB; tunicamycin-treated vs DMSO-treated cells): significantly increased | Stat3 phosphorylation (activation) in the hypothalamus ([1]; leptin 1 mg/kg IP 5½ hours after third ventricle tunicamycin or vehicle infusion, 30 minutes after leptin): blocked | POMC mRNA levels in hypothalamus ([1]; third ventricle infusion): did not show any significant difference | acute food intake ([1]; third ventricle infusion): significantly increased | hypothalamic mRNA levels of IR and IRS1 ([1]; third ventricle infusion): does not lead to a change | mRNA levels of NPY and AgRP in hypothalamus ([1]; third ventricle infusion): significant increase | mRNA levels of ER stress-responsive genes (XBP1s, CHOP, ERDJ4) in hypothalamus ([1]; third ventricle infusion, twelve hours after infusion): significantly upregulated | insulin-stimulated IR tyrosine phosphorylation (insulin receptor (IR)): did not change | time until leptin-stimulated LepRb, Jak2 activation and Stat3 tyrosine phosphorylation are blocked ([2]; Ad-LacZ infected 293 cells, tunicamycin 0.05 μg/ml): ≤ 2 h | CHOP mRNA expression ([2]; tunicamycin 0.01 and 0.05 μg/ml, five hours): upregulates | leptin-stimulated Jak2 tyrosine phosphorylation ([3]; tunicamycin 3 μg/ml 4 hours): reduced to an undetectable level | leptin-induced Stat3 phosphorylation (Tyr705) [3, 4]: totally abolished | leptin-stimulated LepRB tyrosine phosphorylation [3, 4]: completely inhibited

— patent publication US9283277B2, “Methods and compositions for the treatment of obesity” (Children's Medical Center Corporation, priority 2008, dated 2016)
